ChEMBL document CHEMBL3885881, “DrugMatrix”

Species on record: Rattus norvegicus
Experiment: DrugMatrix - Regimen: Daily Repeat
Type: toxicity, organism-based, Sprague-Dawley
Set-up: regimen Daily Repeat, gender Male, age 6-8 weeks
Details: in vivo, po, route oral GAVAGE, […]; for POTASSIUM / SODIUM / TOTAL BILIRUBIN / TOTAL PROTEIN / URIC ACID / ALANINE AMINOTRANSFERASE / ALBUMIN / ALKALINE PHOSPHATASE / ASPARTATE AMINOTRANSFERASE / BLOOD UREA NITROGEN / CARBON DIOXIDE / CHLORIDE / CHOLESTEROL / CREATINE PHOSPHOKINASE / CREATININE / GLUCOSE / LIPASE / PHOSPHORUS / LACTATE DEHYDROGENASE: tissue Plasma; for ABSOLUTE BASOPHIL / ABSOLUTE EOSINOPHIL / ABSOLUTE LYMPHOCYTE / ABSOLUTE MONOCYTE / BASOPHIL / EOSINOPHIL / ERYTHROCYTE COUNT / HEMATOCRIT / HEMOGLOBIN / LEUKOCYTE COUNT / LYMPHOCYTE / MEAN CORPUSCULAR HEMOGLOBIN / MEAN CORPUSCULAR HEMOGLOBIN CONCENTRATION / MEAN CORPUSCULAR VOLUME / MONOCYTE / NEUTROPHIL / PLATELET COUNT: tissue Blood
[1] = 0 mg/kg, 72 h, dose level Control, time 3 day
[2] = 0 mg/kg, 120 h, dose level Control, time 5 day
[3] = 0 mg/kg, dose level Control, time 14 day
[4] = 15 mg/kg, 72 h, dose level High, time 3 day
[5] = 15 mg/kg, 120 h, dose level High, time 5 day
[6] = 15 mg/kg, dose level High, time 14 day

CC(CCc1ccc(O)cc1)NCCc1ccc(O)c(O)c1 (configuration not stated) [DOBUTAMINE]
POTASSIUM [1]: 6.13 MEQ/L
SODIUM [1]: 145 MEQ/L
TOTAL BILIRUBIN [1]: 0.43 mg/dL
TOTAL PROTEIN [1]: 6.7 G/DL
URIC ACID [1]: 0.83 mg/dL
ABSOLUTE BASOPHIL [2]: 33.3 cells/µL
ABSOLUTE EOSINOPHIL [2]: 56.7 cells/µL
ABSOLUTE LYMPHOCYTE [2]: 9220 cells/µL
ABSOLUTE MONOCYTE [2]: 230 cells/µL
BASOPHIL [2]: 0.3%
EOSINOPHIL [2]: 0.5%
ERYTHROCYTE COUNT [2]: 6.62 x10E6/uL
HEMATOCRIT [2]: 46.43%
HEMOGLOBIN [2]: 14.3 G/DL
LEUKOCYTE COUNT [2]: 10.96 x10E3/uL
LYMPHOCYTE [2]: 83.83%
MEAN CORPUSCULAR HEMOGLOBIN [2]: 21.57 pg
MEAN CORPUSCULAR HEMOGLOBIN CONCENTRATION [2]: 30.77 G/DL
MEAN CORPUSCULAR VOLUME [2]: 70.13 fL
MONOCYTE [2]: 2.1%
NEUTROPHIL [2]: 12.53%
PLATELET COUNT [2]: 1056.67 x10E3/uL
ALANINE AMINOTRANSFERASE [2]: 41.33 u/L
ALBUMIN [2]: 4.07 G/DL
ALKALINE PHOSPHATASE [2]: 603.33 u/L
ASPARTATE AMINOTRANSFERASE [2]: 80 u/L
BLOOD UREA NITROGEN [2]: 14.67 mg/dL
CARBON DIOXIDE [2]: 43 mmol/L
CHLORIDE [2]: 104 MEQ/L
CHOLESTEROL [2]: 88.33 mg/dL
CREATINE PHOSPHOKINASE [2]: 391.67 u/L
CREATININE [2]: 0.47 mg/dL
GLUCOSE [2]: 156 mg/dL
LIPASE [2]: 10.67 u/L
PHOSPHORUS [2]: 9.03 mg/dL
POTASSIUM [2]: 6.1 MEQ/L
SODIUM [2]: 145.67 MEQ/L
TOTAL BILIRUBIN [2]: 0.37 mg/dL
TOTAL PROTEIN [2]: 6.53 G/DL
URIC ACID [2]: 0.5 mg/dL
ABSOLUTE BASOPHIL [3]: 73.3 cells/µL
ABSOLUTE EOSINOPHIL [3]: 60 cells/µL
ABSOLUTE LYMPHOCYTE [3]: 12200 cells/µL
ABSOLUTE MONOCYTE [3]: 250 cells/µL
BASOPHIL [3]: 0.5%
EOSINOPHIL [3]: 0.37%
ERYTHROCYTE COUNT [3]: 7.33 x10E6/uL
HEMATOCRIT [3]: 44.3%
HEMOGLOBIN [3]: 14.77 G/DL
LEUKOCYTE COUNT [3]: 14.86 x10E3/uL
LYMPHOCYTE [3]: 81.87%
MEAN CORPUSCULAR HEMOGLOBIN [3]: 20.2 pg
MEAN CORPUSCULAR HEMOGLOBIN CONCENTRATION [3]: 33.33 G/DL
MEAN CORPUSCULAR VOLUME [3]: 60.57 fL
MONOCYTE [3]: 1.63%
NEUTROPHIL [3]: 14.93%
PLATELET COUNT [3]: 1101.67 x10E3/uL
ALANINE AMINOTRANSFERASE [3]: 31.67 u/L
ALBUMIN [3]: 3.83 G/DL
ALKALINE PHOSPHATASE [3]: 430.67 u/L
ASPARTATE AMINOTRANSFERASE [3]: 87 u/L
BLOOD UREA NITROGEN [3]: 14.33 mg/dL
CARBON DIOXIDE [3]: 39 mmol/L
CHLORIDE [3]: 104 MEQ/L
CHOLESTEROL [3]: 66 mg/dL
CREATINE PHOSPHOKINASE [3]: 441.67 u/L
CREATININE [3]: 0.7 mg/dL
GLUCOSE [3]: 125.67 mg/dL
LACTATE DEHYDROGENASE [3]: 397.67 u/L
LIPASE [3]: 12.33 u/L
PHOSPHORUS [3]: 9.87 mg/dL
POTASSIUM [3]: 5.93 MEQ/L
SODIUM [3]: 145 MEQ/L
TOTAL BILIRUBIN [3]: 0.37 mg/dL
TOTAL PROTEIN [3]: 6.27 G/DL
URIC ACID [3]: 0.67 mg/dL
ABSOLUTE BASOPHIL [4]: 23.3 cells/µL
ABSOLUTE EOSINOPHIL [4]: 50 cells/µL
ABSOLUTE LYMPHOCYTE [4]: 6060 cells/µL
ABSOLUTE MONOCYTE [4]: 170 cells/µL
BASOPHIL [4]: 0.3%
EOSINOPHIL [4]: 0.67%
ERYTHROCYTE COUNT [4]: 6.67 x10E6/uL
HEMATOCRIT [4]: 46.03%
HEMOGLOBIN [4]: 14.2 G/DL
LEUKOCYTE COUNT [4]: 8.35 x10E3/uL
LYMPHOCYTE [4]: 72.8%
MEAN CORPUSCULAR HEMOGLOBIN [4]: 21.33 pg
MEAN CORPUSCULAR HEMOGLOBIN CONCENTRATION [4]: 30.87 G/DL
MEAN CORPUSCULAR VOLUME [4]: 69.1 fL
MONOCYTE [4]: 2.07%
NEUTROPHIL [4]: 23.9%
PLATELET COUNT [4]: 1110.33 x10E3/uL
ALANINE AMINOTRANSFERASE [4]: 48.33 u/L
ALBUMIN [4]: 4.07 G/DL
ALKALINE PHOSPHATASE [4]: 498.67 u/L
ASPARTATE AMINOTRANSFERASE [4]: 85.67 u/L
BLOOD UREA NITROGEN [4]: 18.67 mg/dL
CARBON DIOXIDE [4]: 41.67 mmol/L
CHLORIDE [4]: 105 MEQ/L
CHOLESTEROL [4]: 71.67 mg/dL
CREATINE PHOSPHOKINASE [4]: 568.67 u/L
CREATININE [4]: 0.6 mg/dL
GLUCOSE [4]: 196 mg/dL
LIPASE [4]: 199.67 u/L
PHOSPHORUS [4]: 9.2 mg/dL
POTASSIUM [4]: 5.77 MEQ/L
SODIUM [4]: 147.67 MEQ/L
TOTAL BILIRUBIN [4]: 0.43 mg/dL
TOTAL PROTEIN [4]: 6.67 G/DL
URIC ACID [4]: 0.6 mg/dL
ABSOLUTE BASOPHIL [5]: 26.7 cells/µL
ABSOLUTE EOSINOPHIL [5]: 26.7 cells/µL
ABSOLUTE LYMPHOCYTE [5]: 7530 cells/µL
ABSOLUTE MONOCYTE [5]: 170 cells/µL
BASOPHIL [5]: 0.27%
EOSINOPHIL [5]: 0.33%
ERYTHROCYTE COUNT [5]: 6.8 x10E6/uL
HEMATOCRIT [5]: 46.17%
HEMOGLOBIN [5]: 14.17 G/DL
LEUKOCYTE COUNT [5]: 9.18 x10E3/uL
LYMPHOCYTE [5]: 82.07%
MEAN CORPUSCULAR HEMOGLOBIN [5]: 20.87 pg
MEAN CORPUSCULAR HEMOGLOBIN CONCENTRATION [5]: 30.73 G/DL
MEAN CORPUSCULAR VOLUME [5]: 67.93 fL
MONOCYTE [5]: 1.87%
NEUTROPHIL [5]: 15%
PLATELET COUNT [5]: 1523.67 x10E3/uL
ALANINE AMINOTRANSFERASE [5]: 40.67 u/L
ALBUMIN [5]: 4.2 G/DL
ALKALINE PHOSPHATASE [5]: 613.33 u/L
ASPARTATE AMINOTRANSFERASE [5]: 74.67 u/L
BLOOD UREA NITROGEN [5]: 17 mg/dL
CARBON DIOXIDE [5]: 40.67 mmol/L
CHLORIDE [5]: 107.33 MEQ/L
CHOLESTEROL [5]: 84.33 mg/dL
CREATINE PHOSPHOKINASE [5]: 393 u/L
CREATININE [5]: 0.53 mg/dL
GLUCOSE [5]: 174.33 mg/dL
LIPASE [5]: 199.33 u/L
PHOSPHORUS [5]: 10.1 mg/dL
POTASSIUM [5]: 6.07 MEQ/L
SODIUM [5]: 149.33 MEQ/L
TOTAL BILIRUBIN [5]: 0.4 mg/dL
TOTAL PROTEIN [5]: 6.73 G/DL
URIC ACID [5]: 0.87 mg/dL
ABSOLUTE BASOPHIL [6]: 52 cells/µL
ABSOLUTE EOSINOPHIL [6]: 40 cells/µL
ABSOLUTE LYMPHOCYTE [6]: 9620 cells/µL
ABSOLUTE MONOCYTE [6]: 200 cells/µL
BASOPHIL [6]: 0.42%
EOSINOPHIL [6]: 0.34%
ERYTHROCYTE COUNT [6]: 7.05 x10E6/uL
HEMATOCRIT [6]: 43.9%
HEMOGLOBIN [6]: 14.6 G/DL
LEUKOCYTE COUNT [6]: 12.04 x10E3/uL
LYMPHOCYTE [6]: 79.76%
MEAN CORPUSCULAR HEMOGLOBIN [6]: 20.7 pg
MEAN CORPUSCULAR HEMOGLOBIN CONCENTRATION [6]: 33.26 G/DL
MEAN CORPUSCULAR VOLUME [6]: 62.28 fL
MONOCYTE [6]: 1.68%
NEUTROPHIL [6]: 17.28%
PLATELET COUNT [6]: 1124.2 x10E3/uL
ALANINE AMINOTRANSFERASE [6]: 35 u/L
ALBUMIN [6]: 4.04 G/DL
ALKALINE PHOSPHATASE [6]: 405.4 u/L
ASPARTATE AMINOTRANSFERASE [6]: 77.8 u/L
BLOOD UREA NITROGEN [6]: 14 mg/dL
CARBON DIOXIDE [6]: 43.2 mmol/L
CHLORIDE [6]: 103 MEQ/L
CHOLESTEROL [6]: 69.8 mg/dL
CREATINE PHOSPHOKINASE [6]: 325.8 u/L
CREATININE [6]: 0.8 mg/dL
GLUCOSE [6]: 144.4 mg/dL
LACTATE DEHYDROGENASE [6]: 182.2 u/L
LIPASE [6]: 12.2 u/L
PHOSPHORUS [6]: 10.48 mg/dL
POTASSIUM [6]: 6.04 MEQ/L
SODIUM [6]: 147 MEQ/L
TOTAL BILIRUBIN [6]: 0.36 mg/dL
TOTAL PROTEIN [6]: 6.56 G/DL
URIC ACID [6]: 0.66 mg/dL
